Key:
PARP-1 CAT domain WT = target: T1, PARP-1 CAT domain WT (Homo sapiens, UniProt P09874); assay: Differential scanning fluorimetry (DSF), PARP-1 CAT WT; type: binding; settings: for TM: Figure 1e, CAT WT 5 μM, TM without compound 51.58, in °C (unit assumed)
T1 construct: The PARP-1 CAT WT (residues 661–1014) was cloned in pET28 vector; made in house; host or cells: E. coli
Experimental: (§1) DSF experiments were performed as described, [13] using 5 µM protein, 2.5 µM DNA when indicated and various concentrations of compound (BAD, carba-NAD^+, benzamide, and ADP-ribose) as indicated in Fig. 1 and Fig. 3. Experiments were performed on a Roche LightCycler 480 RT-PCR. Reactions including DNA were performed with a 26- or 28-base pair (bp) unphosphorylated oligonucleotide for PARP-1, a 28-bp 5´-phosphorylated (5´P) oligonucleotide for PARP-2, and a 47-bp oligonucleotide including a central 5´P nick for PARP-3^13 in the following buffer: 25 mM Hepes pH 8.0, 150 mM NaCl, 1 mM EDTA, and 0.1 mM TCEP. Reactions with PARP-3 were conducted at lower ionic strength to allow binding to DNA as described (25 mM Hepes pH 8.0, 50 mM NaCl, 1 mM EDTA and 0.1 mM TCEP)[13]. ΔTM values were calculated by subtracting the TM determined for the protein in the absence of compound from the TM determined in the presence of compound. Experiments were performed in triplicate and a Boltzmann sigmoid was fit to the data to determine the TM values (KaleidaGraph).

PARP-1 CAT ΔHD = target: T2, PARP-1 CAT ΔHD (Homo sapiens, UniProt P09874); assay: DSF, PARP-1 CAT ΔHD; type: binding; settings: for TM: Figure 1e, CAT ΔHD 5 μM, TM without compound 41.26, in °C (unit assumed)
T2 construct: a pET28 construct coding for PARP-1 residues 661-1011; made in house; host or cells: E. coli
Experimental: as §1

full-length PARP-1 = target: T3, full-length PARP-1 (Homo sapiens, UniProt P09874); assay: Colorimetric assay of full-length PARP-1 DNA-dependent activity; type: biochemical; settings: 20 nM PARP-1, 40 nM DNA, 50 μM NAD+
T3 construct: Full-length PARP-1 WT (residues 1–1014) was cloned in pET28 vector; made in house; host or cells: E. coli
Experimental: The colorimetric assay was performed as described, [28] using 20 nM of protein and 40 nM DNA (18-bp duplex). A mixture of NAD^+ and biotinylated NAD^+ (bio-NAD^+) was used at a 99:1 ratio and a final concentration of 50 µM. Reactions were allowed to proceed for 5 min before quenching. Three independent experiments were performed.

[1] = 5 μM protein, various amounts of compound

T1 sequence (P09874 661-1014): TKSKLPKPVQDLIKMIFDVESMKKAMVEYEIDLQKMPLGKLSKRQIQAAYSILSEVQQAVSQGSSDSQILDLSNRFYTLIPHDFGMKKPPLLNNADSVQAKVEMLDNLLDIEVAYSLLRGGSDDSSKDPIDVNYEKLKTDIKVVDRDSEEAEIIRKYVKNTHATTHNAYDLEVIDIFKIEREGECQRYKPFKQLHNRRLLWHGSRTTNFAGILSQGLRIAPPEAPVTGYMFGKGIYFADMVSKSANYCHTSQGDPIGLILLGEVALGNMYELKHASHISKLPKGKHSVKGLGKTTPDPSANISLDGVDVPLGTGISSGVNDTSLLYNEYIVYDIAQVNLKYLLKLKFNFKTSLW
T2 sequence (P09874 with tags, fused parts or gaps): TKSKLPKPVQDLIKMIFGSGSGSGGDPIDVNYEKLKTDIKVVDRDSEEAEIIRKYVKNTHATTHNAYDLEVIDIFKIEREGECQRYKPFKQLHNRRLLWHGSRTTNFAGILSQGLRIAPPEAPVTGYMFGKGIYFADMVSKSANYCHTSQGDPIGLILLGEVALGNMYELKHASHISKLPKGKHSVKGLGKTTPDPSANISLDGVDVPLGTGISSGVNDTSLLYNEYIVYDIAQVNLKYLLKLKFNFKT
T3 sequence (P09874 whole entry, the tested form may be a part): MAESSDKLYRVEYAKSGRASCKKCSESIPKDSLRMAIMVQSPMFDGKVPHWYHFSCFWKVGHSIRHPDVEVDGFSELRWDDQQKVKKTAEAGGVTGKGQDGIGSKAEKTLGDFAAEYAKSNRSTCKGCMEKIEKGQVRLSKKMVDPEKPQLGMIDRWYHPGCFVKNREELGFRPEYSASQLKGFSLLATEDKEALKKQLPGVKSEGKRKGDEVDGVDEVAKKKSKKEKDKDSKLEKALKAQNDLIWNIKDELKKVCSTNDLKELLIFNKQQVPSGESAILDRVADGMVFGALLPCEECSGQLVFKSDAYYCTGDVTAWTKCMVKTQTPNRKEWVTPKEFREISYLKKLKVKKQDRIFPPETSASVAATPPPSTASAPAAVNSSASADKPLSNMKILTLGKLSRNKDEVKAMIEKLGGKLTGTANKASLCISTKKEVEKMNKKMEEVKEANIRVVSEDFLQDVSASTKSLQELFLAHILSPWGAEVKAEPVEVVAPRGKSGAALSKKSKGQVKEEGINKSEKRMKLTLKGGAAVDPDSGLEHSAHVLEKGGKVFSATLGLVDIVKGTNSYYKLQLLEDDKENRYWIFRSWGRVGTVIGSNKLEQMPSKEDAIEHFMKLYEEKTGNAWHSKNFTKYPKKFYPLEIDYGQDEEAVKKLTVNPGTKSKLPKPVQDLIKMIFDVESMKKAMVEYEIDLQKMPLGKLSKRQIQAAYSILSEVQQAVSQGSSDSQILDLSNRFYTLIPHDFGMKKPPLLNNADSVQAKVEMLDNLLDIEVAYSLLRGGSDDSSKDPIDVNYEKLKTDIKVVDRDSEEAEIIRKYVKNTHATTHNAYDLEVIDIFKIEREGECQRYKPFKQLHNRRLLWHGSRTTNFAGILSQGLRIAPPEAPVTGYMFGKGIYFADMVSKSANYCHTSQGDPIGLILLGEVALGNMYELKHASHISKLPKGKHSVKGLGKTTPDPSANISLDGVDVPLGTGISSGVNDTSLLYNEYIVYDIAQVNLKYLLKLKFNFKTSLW

- change of apparent TM of PARP-1 CAT WT (evidence of binding) (PARP-1 CAT domain WT; [1]): no evidence of binding
- TM (PARP-1 CAT domain WT; compound 25 µM): 51.52
- TM (PARP-1 CAT domain WT; compound 150 µM): 51.61
- TM (PARP-1 CAT domain WT; compound 750 µM): 51.56
- TM (PARP-1 CAT domain WT; compound 1500 µM): 51.53
- change of TM of CAT ΔHD (evidence of binding) (PARP-1 CAT ΔHD; [1]): no evidence of binding
- TM (PARP-1 CAT ΔHD; compound 25 µM): 41.46
- TM (PARP-1 CAT ΔHD; compound 150 µM): 41.57
- TM (PARP-1 CAT ΔHD; compound 750 µM): 41.43
- TM (PARP-1 CAT ΔHD; compound 1500 µM): 41.68
SMILES: Nc1ncnc2c1ncn2C1OC(COP(=O)(O)OP(=O)(O)OCC2OC(O)C(O)C2O)C(O)C1O (centres unmarked) [ADP-ribose]
- inhibition of DNA damage-dependent activity of full-length PARP-1 (full-length PARP-1): does not inhibit the reaction

— publication PMC5829251, “NAD^+ analog reveals PARP-1 substrate-blocking mechanism and allosteric communication from catalytic center to DNA-binding domains” (Nature Communications, 2018)
